Reference: the supplement of paper PMC10307832

What was measured:
Assay in all cases: relative viability (nuclei count vs DMSO), 5 days (fraction); higher = more cells survive
[1] = compound: C1COCCN1C2=NC(=NC3=C2OC4=C3C=CC=N4)C5=CC(=CC=C5)NC(=O)C6=CN=C(C=C6)N + Cc1nc(Nc2ncc(C(=O)Nc3c(C)cccc3Cl)s2)cc(N2CCN(CCO)CC2)n1 [Dasatinib] (partner 0.075 µM)
In short: (§1)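 After 5 days of treatment, lung cancer cells in 1536-well plates were fixed and stained in a single step (final 0.05% Triton X-100, 1% formaldehyde, 1 ug/ml Hoechst) and their nuclei counted on 4× images. Treatment had been applied by pin tool the day after seeding as one drug alone or as a fixed anchor-drug dose with five library-drug doses (not always all listed) in √10 steps. Relative viability is the nuclei count of treated wells divided by that of vehicle wells, and values are medians of duplicate plates.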

[2] = compound: C1COCCN1C2=NC(=NC3=C2OC4=C3C=CC=N4)C5=CC(=CC=C5)NC(=O)C6=CN=C(C=C6)N + NC(=O)Nc1cc(-c2cccc(F)c2)sc1C(=O)N[C@H]1CCCNC1 [AZD7762] (partner 0.2 µM)
In short: as §1

SGI-1776 + AZD7762 = compound: CN1CCC(CNc2ccc3ncc(-c4cccc(OC(F)(F)F)c4)n3n2)CC1 [SGI-1776] + NC(=O)Nc1cc(-c2cccc(F)c2)sc1C(=O)N[C@H]1CCCNC1 [AZD7762] (partner 0.2 µM)
In short: as §1

Entinostat + Olaparib = compound: Nc1ccccc1NC(=O)c1ccc(CNC(=O)OCc2cccnc2)cc1 [Entinostat] + O=C(c1cc(Cc2n[nH]c(=O)c3ccccc23)ccc1F)N1CCN(C(=O)C2CC2)CC1 [Olaparib] (partner 8 µM)
In short: as §1

| Cell Line | relative viability ([1]; first compound 0.02 µM) | relative viability ([1]; first compound 0.06325 µM) | relative viability ([1]; first compound 0.2 µM) | relative viability ([1]; first compound 0.6325 µM) | relative viability ([1]; first compound 2 µM) | relative viability ([2]; first compound 0.02 µM) | relative viability ([2]; first compound 0.06325 µM) | relative viability ([2]; first compound 0.2 µM) | relative viability ([2]; first compound 0.6325 µM) | relative viability ([2]; first compound 2 µM) | relative viability (SGI-1776 + AZD7762; first compound 0.08 µM) | relative viability (SGI-1776 + AZD7762; first compound 0.8 µM) | relative viability (SGI-1776 + AZD7762; first compound 2.53 µM) | relative viability (SGI-1776 + AZD7762; first compound 8 µM) | relative viability (Entinostat + Olaparib; first compound 0.02 µM) | relative viability (Entinostat + Olaparib; first compound 0.06325 µM) | relative viability (Entinostat + Olaparib; first compound 0.2 µM) | relative viability (Entinostat + Olaparib; first compound 0.6325 µM) | relative viability (Entinostat + Olaparib; first compound 2 µM) |
| --- | --- | --- | --- | --- | --- | --- | --- | --- | --- | --- | --- | --- | --- | --- | --- | --- | --- | --- | --- |
| NCI-H3122 | 0.796 | 0.786 | 0.787 | 0.868 | 0.657 | 0.973 | 1.01 | 0.99 | 0.973 | 0.667 | 0.941 | 0.935 | 0.938 | 1 | 0.653 | 0.622 | 0.604 | 0.517 | 0.452 |
| NCI-H2085 | 0.223 | 0.252 | 0.25 | 0.204 | 0.258 | 0.934 | 0.969 | 0.874 | 0.646 | 0.598 | 1.08 | 1.06 | 0.978 | 0.956 | 0.755 | 0.726 | 0.717 | 0.592 | 0.378 |
| PC-14 | 0.229 | 0.229 | 0.218 | 0.138 | 0.175 | 0.349 | 0.352 | 0.242 | 0.332 | 0.23 | 0.474 | 0.352 | 0.27 | 0.146 | 0.291 | 0.294 | 0.321 | 0.104 | 0.0475 |
| NCI-H1355 | 0.755 | 0.79 | 0.71 | 0.659 | 0.5 | 0.875 | 0.765 | 0.713 | 0.66 | 0.539 | 0.782 | 0.772 | 0.657 | 0.642 | 0.669 | 0.698 | 0.647 | 0.535 | 0.356 |
| NCI-H727 | 0.388 | 0.351 | 0.295 | 0.442 | 0.345 | 0.528 | 0.678 | 0.812 | 0.602 | 0.755 | 0.696 | 0.739 | 0.807 | 0.583 | 0.73 | 0.735 | 0.642 | 0.677 | 0.532 |
| NCI-H1755 | 0.499 | 0.408 | 0.409 | 0.346 | 0.256 | 0.45 | 0.4 | 0.397 | 0.414 | 0.348 | 0.459 | 0.575 | 0.463 | 0.378 | 0.877 | 0.816 | 0.598 | 0.458 | 0.377 |
| NCI-H1651 | 0.482 | 0.461 | 0.39 | 0.4 | 0.22 | 0.507 | 0.563 | 0.476 | 0.461 | 0.36 | 0.537 | 0.519 | 0.494 | 0.419 | 0.2 | 0.199 | 0.199 | 0.174 | 0.154 |
| NCI-H647 | 0.196 | 0.2 | 0.174 | 0.164 | 0.0709 | 0.481 | 0.627 | 0.373 | 0.527 | 0.359 | 0.479 | 0.49 | 0.414 | 0.319 | 0.522 | 0.333 | 0.426 | 0.0646 | 0.0559 |
| NCI-H1944 | 0.201 | 0.211 | 0.206 | 0.215 | 0.207 | 0.568 | 0.436 | 0.398 | 0.389 | 0.381 | 0.619 | 0.595 | 0.518 | 0.441 | 0.373 | 0.323 | 0.216 | 0.177 | 0.172 |
| LK-2 | 0.253 | 0.284 | 0.245 | 0.245 | 0.283 | 0.427 | 0.406 | 0.378 | 0.416 | 0.221 | 0.423 | 0.54 | 0.324 | 0.236 | 0.857 | 0.904 | 0.584 | 0.475 | 0.239 |
| HCC-15 | 0.677 | 0.612 | 0.567 | 0.561 | 0.476 | 1.29 | 1.28 | 1.24 | 1.06 | 0.982 | 1.05 | 1.12 | 1.34 | 1.21 | 0.684 | 0.617 | 0.56 | 0.377 | 0.201 |
| NCI-H838 | 0.291 | 0.299 | 0.271 | 0.314 | 0.249 | 0.95 | 0.967 | 0.999 | 0.827 | 0.755 | 0.944 | 0.961 | 0.932 | 0.916 | 0.819 | 0.79 | 0.759 | 0.452 | 0.201 |
| HOP-62 | 0.765 | 0.743 | 0.547 | 0.574 | 0.323 | 0.732 | 0.494 | 0.434 | 0.633 | 0.291 | 0.84 | 0.574 | 0.613 | 0.646 | 0.36 | 0.391 | 0.373 | 0.147 | 0.128 |
| NCI-H322M | 0.251 | 0.251 | 0.241 | 0.274 | 0.234 | 0.543 | 0.49 | 0.575 | 0.56 | 0.516 | 0.631 | 0.568 | 0.524 | 0.646 | 0.722 | 0.952 | 0.887 | 0.815 | 0.618 |
| NCI-H1395 | 0.388 | 0.359 | 0.394 | 0.353 | 0.369 | 0.387 | 0.348 | 0.374 | 0.371 | 0.372 | 0.424 | 0.432 | 0.393 | 0.402 | 0.445 | 0.466 | 0.423 | 0.398 | 0.408 |
| NCI-H650 | 0.475 | 0.453 | 0.416 | 0.442 | 0.385 | 1.08 | 1 | 0.993 | 0.809 | 0.852 | 1.21 | 0.941 | 0.994 | 1.17 | 0.43 | 0.425 | 0.363 | 0.21 | 0.171 |
| NCI-H1734 | 0.502 | 0.544 | 0.436 | 0.397 | 0.262 | 0.661 | 0.612 | 0.497 | 0.498 | 0.422 | 0.616 | 0.687 | 0.654 | 0.568 | 0.0279 | 0.637 | 0.621 | 0.563 | 0.356 |
